Source: US10398723B1, “Hyaluronan-containing composition and use thereof for mitigation and/or prevention of inflammation and/or pain” (Viscos, LLC, priority 2015, dated 2019)

System: whole blood culture
Test: inflammatory cell activation (CD69, CD25 expression) in whole blood culture
Type: cell-based
Details: samples from human subjects; 0.006 mg/mL, 0.05 g/mL or 0.4 mg/mL in culture medium; dose-dependent
Experimental: A dose of 0.006 mg/mL, […] or 0.4 mg/mL (concentration of formulation in culture medium) was employed, but any dose less than 0.006 mg/mL or greater than 0.4 mg/mL or between 0.006 mg/mL and 0.4 mg/mL (concentration of formulation in any diluent) is likewise within the scope of this disclosure. […] Activation of inflammatory cells was measured, and is verified by assays known in the art, by expression of CD69, a protein expressed on activated white blood cells including T lymphocytes, NK cells, monocytes and PMN cells. Activation of inflammatory cells was measured, and is verified by assays known in the art, by expression of CD25, the alpha chain of the low affinity interleukin-2 (IL-2) receptor. […] An increase such as that observed in this Example may be, by way of example and not of limitation, of at least about 1%, or of at least about 2%, or of at least about 5%, or of at least about 10%, or of at least about 20%, or of at least about 30%, or of at least about 40%, or of at least about 50%, or of at least about 60%, or of at least about 70%, or of at least about 80%, or of at least about 90%. A statistically significant decrease is a function of sample size and variability. […]

Molecule	inflammatory cell activation
Hyaluronan [HA]	decrease
CS(C)(=O)=O [MSM, methylsulfonylmethane]	decrease
